Measurements published in PMC8890653, “Cell-penetrating peptides containing the progesterone receptor polyproline domain inhibits EGF signaling and cell proliferation in lung cancer cells” (PLoS ONE, 2022).

System: PC9-ER cells
Test: Cell viability (MTT) of Erlotinib-resistant cells
Conditions: Homo sapiens, PC-9/ER, 72 h, read-out: Inhibition of PC9-ER cell proliferation, Erlotinib alone

Compound `C#Cc1cccc(Nc2ncnc3cc(OCCOC)c(OCCOC)cc23)c1` [Erlotinib] has an inhibition at 0.1 µM of 8%.
